Assays:
Sindbis virus = Sindbis virus plaque assay; conditions: African green monkey epithelial cells (Vero), 5 μM, 30 min pre-treatment
Toxoplasma gondii = Toxoplasma gondii replication in human foreskin fibroblasts; type: cell-based
Procedure: Primary human foreskin fibroblasts (HFF) were infected with trachyzoites in the presence of WP1130 or vehicle control for 24 hours. […] 1.25×10^5 tachyziotes (RH strain) (MOI=1) were added to each well of a chamber slide in the presence of WP1130 or vehicle control. At 24 hours post infection, cells were fixed in 4% paraformaldehyde for fifteen minutes. Cells were then washed with PBS and analyzed by immunofluorescence microscopy. Parasites were stained with an anti-SAG 1 antibody (the immunodominant surface antigen of T. gondii) followed by an Alexa 594-labeled secondary antibody and DAPI. For quantitative analysis the number of parasites/vacuole were counted.
WP1130 also blocks the replication of the apicomplexan Toxoplasma gondii in primary human foreskin fibroblasts. Cells were treated with WP1130 and infected with tachyziotes (RH strain) (MOI 1) for 24 hr before performing immunofluorescence and counting parasite-containing vacuoles.

USP5 = target: T1, USP5 (Homo sapiens, UniProt P45974); assay: HA-UbVs labeling of USP5; type: cell-based
T1 construct: endogenous in cells; host or cells: Z138
T1 sequence (P45974 1-858): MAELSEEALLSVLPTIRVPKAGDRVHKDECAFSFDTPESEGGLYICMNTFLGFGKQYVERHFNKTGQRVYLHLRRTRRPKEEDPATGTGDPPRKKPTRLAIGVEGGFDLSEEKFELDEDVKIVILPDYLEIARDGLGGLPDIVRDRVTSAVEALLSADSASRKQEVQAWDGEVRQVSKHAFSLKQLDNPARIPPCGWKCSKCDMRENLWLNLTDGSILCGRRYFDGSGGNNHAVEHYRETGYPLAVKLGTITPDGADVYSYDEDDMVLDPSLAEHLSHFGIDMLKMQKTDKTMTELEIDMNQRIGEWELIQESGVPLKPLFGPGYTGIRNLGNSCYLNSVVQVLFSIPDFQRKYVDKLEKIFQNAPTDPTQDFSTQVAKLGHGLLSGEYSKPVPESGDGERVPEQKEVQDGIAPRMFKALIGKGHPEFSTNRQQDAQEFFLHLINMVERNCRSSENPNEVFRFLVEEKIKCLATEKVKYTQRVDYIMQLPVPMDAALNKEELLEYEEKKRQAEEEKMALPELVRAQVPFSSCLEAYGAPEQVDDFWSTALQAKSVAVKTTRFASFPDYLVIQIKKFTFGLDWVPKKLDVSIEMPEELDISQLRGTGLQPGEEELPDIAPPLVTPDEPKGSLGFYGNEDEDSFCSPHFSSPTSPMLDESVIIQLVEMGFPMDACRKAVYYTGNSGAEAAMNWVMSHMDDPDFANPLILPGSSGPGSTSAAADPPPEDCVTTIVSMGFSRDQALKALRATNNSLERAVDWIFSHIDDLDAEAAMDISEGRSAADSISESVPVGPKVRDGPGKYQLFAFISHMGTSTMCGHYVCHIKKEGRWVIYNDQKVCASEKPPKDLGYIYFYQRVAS
Procedure: To assay for changes in activity of cellular deubiquitinase enzymes, Z138 and HEK293 cells were lysed in DUB buffer (50 mM Tris pH 7.4, 5 mM MgCl2, 150 mM NaCl) for 10 min at 4° C. The lysates were centrifuged at 20,000 RFC for 10 min and the supernatant was used for DUB labeling. Equal amounts of lysate were incubated with 500 ng of HA-UbVs for 1 hr at room temperature, followed by boiling in reducing sample buffer and resolving by SDS-PAGE. After protein transfer to nitrocellulose membranes, HA immunoblotting was used to detect DUB labeling.
Hemagglutinin-tagged ubiquitin vinyl methyl sulfone (HA-UbVs) acts as a DUB suicide substrate, forming a covalent adduct with active DUB enzymes. Specific cellular DUBs can be identified by anti-HA blotting, as previously shown in various cell types. Changes in specific DUB activities are measurable by monitoring HA-labeling in lysates from control and treated cells. […]
USP9x was immunoprecipitated from Z138 cell lysates, prepared in DUB buffer and the beads were incubated with vehicle alone or WP1130 for 30 min. Ub-AMC (500 nM) was added to each reaction and fluorescence was monitored every minute for up to 30 minutes. The maximum fluorescence observed at the end of the linear phase of substrate cleavage in control and WP1130 treated DUBs was used as a gauge to estimate DUB activity and % inhibition. […]

[1] = primary human foreskin fibroblasts, RH strain MOI 1, 24 hr

Compound: CCC[C@H](NC(=O)/C(C#N)=C/c1cccc(Br)n1)c1ccccc1 [WP1130]
- Log inhibition by plaque assay (Sindbis virus): 2-2.5 log
- Log inhibition by plaque assay (Sindbis virus; listed as HWP1130): 2 log
- number of parasites per vacuole (Toxoplasma gondii; HFF, 5 μM, 24 hours post infection): significantly reduced
- decrease in the vacuoles containing 4 parasites (Toxoplasma gondii; [1]): ~5 fold
- increase in the number of vacuoles containing only 1 parasite (Toxoplasma gondii; [1]): ~3 fold
- reduction in HA labeling of USP5 (USP5; HA-UbVs labeling upon incubation with compound): about 80%
- HA-UbVS labeling of USPS (USP5; Z138 cells, 1, 5 or 10 μM, 1 hour): dose-dependent and time reduction in the labeling
